Experiments:
Type in all cases: cell-based, human
HDAC6 [1] = test: Suppression of HDAC6 protein expression in HeLa cells (Western blot); conditions: for production of HDAC6, changing treatment time: 200 nM, 24, 30, 36 and 48 hours, FIG. 4
acetylated α-tubulin = test: Acetylation of α-tubulin in HeLa cells (Western blot); conditions: 200 nM, 24, 30, 36 and 48 hours, FIG. 4
Procedure: The each synthesized antisense oligonucleotide was dissolved in sterile water, and was introduced into HeLa cells using the OligofectAMINE (Invitrogen) according to an attached protocol. The 1.5×10^5 HeLa cells were plated in a 6-well plate, the final concentration of antisense oligonucleotide was set at 200 nM, and OligofectAMINE was used at 3 μl/well.
[…] After the cells were lysed with a SDS-PAGE sample buffer (BPB-free) and protein concentration was determined, the cell lysate at 25 μg/lane was separated by SDS-PAGE, transferred to a PVDF membrane, and immunoblotted with anti-acetylated α-tubulin antibody (clone 6-11B-1, Sigma), anti-α-tubulin antibody (clone DMlA, Sigma) or anti-HDAC6 antibody (H-300, Santa Cruz).

HeLa cells [2] = test: Changes in microtubule structure in HeLa cells (immunofluorescence, confocal microscopy); conditions: FIG. 5
Procedure: HeLa cells were plated on the Lab-TekII Chambered Coverglass (Nunc), and were subjected to:
(1) treatment for 16 hours with 1 μM Paclitaxel (Sigma), a microtubule polymerizing agent;
(3) the introduction of HDAC6 antisense oligonucleotide No. 4 at a final concentration of 200 nM with OligofectAMINE followed by a 24-hour culture.
Then, Lab-TekII Chambered Coverglass was washed with 0.1 M PIPES (pH 6.9), the cells were fixed in 0.5% glutaraldehyde/0.1 M PIPES (pH 6.9) for 10 minutes, washed three times with PBS, permealized three times with 0.5% Triton X100/PBS for 5 minutes each, washed three times with PBS, treated three times with 2.5 mg/ml sodium borohydride/50% ethanol for 10 minutes each, washed three times with PBS, blocked with 10% normal goat serum/PBS, reacted with a primary antibody (a) anti-acetylated α-tubulin antibody (clone 6-11B-1, Sigma) or (b) anti-α-tubulin antibody (clone DM lA, Sigma)/PBS for 1 hour, washed three times with 0.1% Tween 20/PBS, reacted with a second antibody Alexa Fluor 488-conjugated anti-mouse IgG (Molecular Probe)/PBS for 30 minutes, and washed three times with 0.1% Tween 20/PBS, and then examined under a conforcal laser scanning microscope (Carl Zeiss).

HeLa cells [3] = test: Microtubule stability against Colcemid in HeLa cells (immunofluorescence); conditions: pretreated (1 μM 16 hours, or 200 nM oligonucleotide 24 hours), then 1 μM Colcemid 15 minutes, FIG. 11
Procedure: (3) the introduction of HDAC6 antisense oligonucleotide No. 16 at a final concentration of 200 nM with OligofectAMINE followed by a 24-hour culture.
Then, Lab-TekII Chambered Coverglass was washed with 0.1 M PIPES (pH 6.9), the cells were fixed in 0.5% glutaraldehyde/0.1 PIPES (pH 6.9) for 10 minutes, washed three times with PBS, permealized three times with 0.5% Triton X100/PBS for 5 minutes each, washed three times with PBS, treated three times with 2.5 mg/ml sodium borohydride/50% ethanol for 10 minutes each, washed three times with PBS, blocked with 10% normal goat serum/PBS, reacted with a primary antibody rat anti-α-tubulin monoclonal antibody (MAB1864; CHEMICON)/PBS for 1 hour, washed three times with 0.1% Tween 20/PBS, reacted with a second antibody Alexa Fluor 488-conjugated anti-rat IgG (Molecular Probe)/PBS for 30 minutes, and washed three times with 0.1% Tween 20/PBS, and then examined under a conforcal laser scanning microscope (Carl Zeiss).

HeLa cells [4] = test: Induction of apoptosis in HeLa cells (Annexin V-PE, FACS); conditions: 200 nM, 24 to 48 hours, FIG. 6
Procedure: (§1) HeLa cells (1.5×10^5/well) were plated into a 6-well plate with MEM medium containing 10% FCS and 1× nonessential amino acids. HDAC6 antisense oligonucleotide No. 4, 5, 6 or 16 at the final concentration of 200 nM or the control oligonucleotide was introduced into the cells with OligofectAMINE at 3 μl/well, and the cells were treated for 24 hours, 30 hours, 36 hours, or 48 hours. The cells were detached by trypsin treatment and collected, and stained with Annexin V-PE (Becton Dickinson) according to a protocol attached, and analyzed using the FACS caliber (Becton Dickinson).
Thus, the collected cells were washed with PBS, suspended in 100 μl of the binding buffer (Becton Dickinson), to which suspension 5 μl of Annexin V-PE was added and incubated for 15 minutes, and the binding buffer was added to make a total volume of 500 μl. This was subjected to FACS analysis.

HeLa cells [5] = test: Depolarization of mitochondrial membrane potential in HeLa cells (JC-1, FACS); conditions: 200 nM, 24, 36 or 48 hours, FIG. 7
Procedure: as §1, with “5” for “5, 6”, “hours,” for “hours, 30 hours,”, “hours” for “hours,”, “Mitochondrial potential sensor JC-1 (Molecular Probes) was added to the medium at the final concentration of 10 μg/ml and the cells were further caltivated at 37° C. for 10 minutes. Ten minutes later, the” for “The”, “and” for “and stained with Annexin V-PE (Becton Dickinson) according to a protocol attached, and”
Therefore, in order to detect the cells in which mitochondrial membrane potential is depolarized, the ratio of green fluorescence-positive cells was graphically shown and used as an index of apoptosis.

HDAC6 [6] = test: Suppression of HDAC6 protein expression in HepG2, SW480, LoVo and Calu-1 cells (Western blot); conditions: HepG2, SW480, LoVo, Calu-1 cells; 200 nM, 48 hours; FIG. 8

antisense oligonucleotide 6: phosphorothioated HDAC6 antisense oligonucleotide TTTATTACAT ATGCAACCTT, upstream sequence comprising the polyadenylation signal; used as negative control (antisense TTTATTACATATGCAACCTT; all phosphorothioate, sugars by position and methylation of C not given here)
production of HDAC6, changing treatment time (HDAC6 [1]): inhibits the production of HDAC6
acetylation of α-tubulin, changing treatment time (acetylated α-tubulin): enhances the acetylation of α-tubulin

CC(=O)O[C@H]1C(=O)[C@@]2(C)[C@H]([C@H](OC(=O)c3ccccc3)[C@]3(O)C[C@H](OC(=O)[C@H](O)[C@@H](NC(=O)c4ccccc4)c4ccccc4)C(C)=C1C3(C)C)[C@]1(OC(C)=O)CO[C@@H]1C[C@@H]2O [Paclitaxel]
microtubule structure, stained with anti-acetylated α-tubulin antibody (HeLa cells [2]; 1 μM, 16 hours): hyperpolymerized microtubules from the centromere were observed
microtubule structure, stained with anti-α-tubulin antibody (HeLa cells [2]; 1 μM, 16 hours): hyperpolymerized microtubules were observed in the periphery of the nucleus
microtubules after Colcemid in pretreated cells (HeLa cells [3]): the remaining of the polymerized microtubules was observed

antisense oligonucleotide 5: phosphorothioated HDAC6 antisense oligonucleotide GCTGCCTGGT TGTGGTGGAA, complementary to a sequence downstream of ATG (antisense GCTGCCTGGTTGTGGTGGAA; all phosphorothioate, sugars by position and methylation of C not given here)
production of HDAC6, changing treatment time (HDAC6 [1]): inhibits the production of HDAC6
acetylation of α-tubulin, changing treatment time (acetylated α-tubulin): the acetylation of α-tubulin was enhanced at any time
apoptosis judged by Annexin V positivity (HeLa cells [4]): induces apoptosis
mitochondrial depolarization judged by JC-1 staining (HeLa cells [5]): induces mitochondrial depolarization

CC(/C=C/C(=O)NO)=C\[C@@H](C)C(=O)c1ccc(N(C)C)cc1 [Trichostatin A]
microtubule structure (HeLa cells [2]; 1 μM Trichostatin A 16 hours or 200 nM antisense oligonucleotide 24 hours): images of polymerized microtubules were observed throughout the cytoplasm
microtubules after Colcemid in pretreated cells (HeLa cells [3]): the remaining of the polymerized microtubules was observed

control oligo: control oligonucleotide CCTCTTACCT CAGTTACAAT, from abnormal splicing site 705 of β globin pre-mRNA; no specific target in normal cells (antisense CCTCTTACCTCAGTTACAAT; all phosphorothioate, sugars by position and methylation of C not given here)
amount of expressed HDAC6 protein (HDAC6 [1]; 200 nM oligonucleotide, 48 hours after introduction, FIG. 3): did not have any activity of causing the reduction of HDAC6 protein expression
amount of expressed HDAC6 (HDAC6 [6]): did not have any activity of causing the reduction of HDAC6 protein expression
